“Also recorded” adds a separate entry of the source.
Tests used:
[1] = tested on: human CD133(+) brain tumor stem cells (BTSCs); test: differentiation of CD133+ brain tumor stem cells (BTSCs); type: cell-based; details: 20 μM, within 4 days
Method: CD133+ glioblastoma brain tumor stem cells (BTSCs) from an explanted human tumor specimen were treated with 20 μM Isx-9 (FIG. 9C) or vol/vol DMSO (vehicle) control (FIG. 9B).

gluR2-luc = test: gluR2-luciferase reporter gene assay in HCN cells; type: cell-based, rat
MEF2 = test: gel shift assay of MEF2 binding to MEF2 response element of NR1 gene; type: cell-based, rat; details: versus vehicle-treated cells
Method: Protein blotting, immunoprecipitation, and gel shift assay. For protein blotting analysis, whole cell lysates were prepared from HCN cells using RIPA buffer (Tris-HCl, 50 mM, pH 7.4; NP-40, 1%; Na-deoxycholate, 0.25%; NaCl, 150 mM; EDTA, 1 mM; PMSF, 1 mM; aprotinin, leupeptin, pepstatin, 1 mg/ml; Na3VO4, 1 mM; NaF, 1 mM). For nuclear and cytoplasmic extracts, HCNs were lysed in hypotonic buffer (Hepes, 10 mM, pH 8; MgCl2, 1.5 mM; KCl, 10 mM; DTT, 1 mM). Nuclei was then isolated and resuspended in the same buffer with NaCl, 420 mM; EDTA, 0.2 mM; glycerol, 25%; NP-40, 1%; PMSF, 1 mM; aprotinin, leupeptin, pepstatin, 1 mg/ml. Protein concentration in centrifugation-clarified cell lysates were measured by the BCA Protein Assay Kit (Pierce) and equal amounts of protein were separated on a 4-12% SDS-PAGE and transferred to Hybond PVDF (Amersham Biosciences). Protein blots were done using the NuPage gel and transfer system with 4-20% Tris-Bis gels (Invitrogen). […]

HCN cells [2] = test: glial (astrocyte, oligodendrocyte) differentiation of HCN cells/NPCs; type: cell-based, rat; details: 4 d cultures
HCN cells [3] = test: in vitro neuronal differentiation of HCN cells (morphology, Tuj1 staining); type: cell-based, rat
[4] = tested on: RFP-labeled human CD133(+) BTSCs; test: transplantation of pre-treated RFP-labeled BTSCs into striatum of NOD/scid mice; type: in vivo
Method: BTSC transplantation was performed by stereotactic surgery into the left striatum (coordinates from Bregma AP −0 mm, ML +2.5 mm, DV −3.5 mm) with a 33-gauge Hamilton syringe at a flow rate of 30,000 cells/10 minutes.

neuroD-luciferase = neuroD-luciferase reporter gene assay in HCN cells; type: cell-based, rat; details: HCN cells
[5] = tested on: MEF2 reporter gene (3XMRE-luc); test: MEF2 reporter gene (3XMRE-luc) assay in HCN cells; type: cell-based, rat; details: HCN cells/NPCs, versus vehicle
[6] = tested on: adult mouse whole brain (MWB) neural progenitor cells; test: neuronal differentiation of adult mouse whole brain (MWB) neural progenitor cells; type: cell-based; details: 4 d cultures
Method: Neural stem cell culture, in vitro differentiation, and CaMK inhibitor studies. The hippocampal neural stem/progenitor (NSC) line used in this study (HCN cells) were originally isolated from adult (8-10 wks old) female Fisher 344 rats and have been characterized previously (Gage et al., 1995; Palmer et al., 1997). HCN cells were cultured in DMEM:F12 (Omega Scientific) with N2 supplement (Invitrogen) and basic fibroblast growth factor (20 ng/ml FGF-2) (PeproTech). The mouse whole brain neural stem/progenitors (MWB) were derived from adult (8-10 wks old) C57BL/6 mice that have been characterized previously (Ray and Gage, 2006). The P19CL6 cells is a sub-line of P19EC cells, originally generated by the late Dr. Habara-Ohkubo (Habara-Ohkubo, 1996), were grown in MEM-α (Invitrogen) containing 10% fetal bovine serum (Omega). HCN cells or MWB neural progenitors were trypsinized and plated into N2 medium (Invitrogen) containing FGF-2 (HCN cells) or FGF-2/EGF/heparin (MWB) overnight, and switched to fresh N2 medium without FGF-2 and Isx-9 (20 μM for HCN cells and 5 μM for MWB) was added for 4 d. To test if Isx-9 could block competing astrocyte or oligodendrocyte differentiation, standard gliogenic conditions were used as described previously (Hsieh et al., 2004). […]

HDAC5 = test: protein blotting of phospho-HDAC5, HDAC4 and phospho-CaMKII in HCN cells; type: cell-based, rat; details: Isx/Isx-9-treated HCNs, 1-2 d

SMILES: O=C(NC1CC1)c1cc(-c2cccs2)on1 [Isx-9, N-cyclopropyl-5-(thiophen-2-yl)isoxazole-3-carboxamide]
- neuronal differentiation of BTSCs [1]: triggers a pro neuronal-differentiation effect; also recorded: leads to more differentiated (adherent and phase-dark with neuronal-like processes) cells
- increase in gluR2 luciferase reporter (gluR2-luc): ≥ 8 fold
- total MEF2 binding to MEF2 response element within the NR1 gene (MEF2): similar
- gliogenesis / glial differentiation (HCN cells [2]): dominantly blocks gliogenesis
- neuronal differentiation of HCN cells/NPCs (HCN cells [3]; 20 μM, 4 d cultures): promotes robust neuronal differentiation
- Tuj1+ differentiation (HCN cells [3]; HCN cells, by 4 d): > 50%
- tumor-initiating ability of BTSCs ([4]; 7-day exposure in vitro (20 μM) before transplantation): dramatically reduces tumor-initiating ability
- number of RFP-labeled BTSCs in the striatum ([4]; after 1 month): significant reduced the number of RFP-labeled BTSCs in the striatum
- increase in neuroD luciferase reporter (neuroD-luciferase): ≥ 8 fold
- activation of MEF2 reporter gene (3XMRE-luc) / MEF2 promoter [5]: Dose-dependent activation
- neuronal differentiation of MWB neural progenitors [6]: promotes neuronal differentiation
- HDAC5 phosphorylation / cytoplasmic phospho-HDAC5 (HDAC5): Increased HDAC5 phosphorylation over time; also recorded: Accumulation of phospho-HDAC5 in the cytoplasm; also recorded: cytoplasmic enrichment of phospho-HDAC5

Source: patent US8193225B2, “Isoxazole amides, derivatives and methods of chemical induction of neurogenesis” (priority 2006, dated 2012)
